According to patent US12264156B2, “Compounds and pharmaceutical compositions thereof for the treatment of diseases” (GALAPAGOS NV, priority 2018, dated 2025):

Legend:
[1] = system: LPS triggered IL-10 secretion in monocytes; test: Monocytes assay: LPS-triggered IL-10 (ELISA); assay type: cell-based, human; conditions: LPS 200 ng/mL, supernatant after 4 h, maximal fold change vs LPS only
Procedure: (§1) SIK inhibition inhibits TNFα and increases IL-10 release in LPS triggered monocyte-derived macrophages (MdM) and dendritic cells (MdDCs) (Clark et al. 2012; Sundberg et al. 2014; Ozanne et al. 2015). This assay evaluates illustrative compounds of the invention for their inhibition of LPS-induced TNFα and LPS triggered IL-10 secretion in monocytes.
(§2) PBMCs are isolated from human blood samples (buffycoats). The buffy coat is aseptically transferred into a 50 mL Falcon tube, and diluted 1/2 in PBS. Falcon tubes are filled with 20 mL Lymphoprep™, on top of which 25 mL of the buffy coat is carefully added, tubes are centrifuged for 35 min at 400 g in temperature controlled centrifuge, without brake, at 25° C. PBMCs are aspirated from the white interface layer between sample and Lymphoprep™. PBMCs are washed five times in PBS. Cells are resuspended in RPMI 1640 complete medium supplemented with 10% FBS, 1% P/S, and cell density is determined using a hematologic analyzer (Sysmex XS-500i).
(§3) PBMCs are centrifuged at 300×g for 10 min and resuspended at a density of 1.0*10^7 cells/80 μL Miltenyi buffer (PBS, pH 7.4, 1% FBS, 2 mM EDTA).
(§4) Starting from this point of the protocol all steps are performed on ice. 20 μL of CD14+ micro-beads are added per 1.0*10^7 cells, the tube is mixed and incubated for 15 min in the fridge at 4° C. Cell suspension volume is adjusted to total volume of 100 mL using Miltenyi buffer, mixed gently and subsequently centrifuged for 10 min at 300×g. Supernantant is discarded and cell pellet is resuspended in 12 mL of Miltenyi buffer.
(§5) Four LS columns are placed in the MACS Separator (magnet) from Miltenyi Biotec, and are prewet by rinsing with 3 mL of MACS buffer per column. Three mL of cell suspension is added onto the column (max 1*10^8 of labelled cells/column), and columns are subsequently washed 3 times with 3 mL of Miltenyi buffer.
(§6) The columns are removed from the magnets, and 5 mL of Miltenyi buffer are added to the column to flush out the CD14+ fraction by pushing the plunger into the column. The flushed fractions are collected in a fresh 50 mL Falcon and volume is adjusted to 30 mL using Miltenyi buffer, cells are centrifuged for 10 min at 300×g. The obtained cell pellet is resuspended in 10 mL RPMI w/o FBS, and cell density is determined using a hematologic analyser (Sysmex XS-500i). 100 000 cells are seeded in 80 μL per well of a 96-well plate in RPMI 1640 medium supplemented with 10% FBS, 1% P/S.
(§7) A compound dilution plate is made in 100% DMSO by 3-fold dilution of 10 mM stock solution. An intermediate dilution plate (10× final concentration) is made by diluting the compound dilution plate 50-fold in RPMI medium.
(§8) 10 μL of the 10× final concentration compound is added to the cells and incubated for 1 h at 37° C. before addition of trigger. No trigger conditions/trigger conditions are spiked with equal final DMSO concentrations of 0.2% DMSO. 10 μL of 10×LPS (final conc. 200 ng/mL) solution are added to all wells except for the ‘no trigger wells’ where 10 μL medium is added. Supernatant is collected after 4 h of LPS triggering.
A Lumitrac 600 Greiner 384-well plate is coated with 40 μL of capture antibody (final concentration of 1 μg/mL in 1×PBS) and stored overnight at 4° C. The next day the plate is washed three times with PBST (PBS+0.05% Tween20) and once with PBS followed by the addition of 100 μL of blocking buffer (1% BSA−5% Sucrose) and plates are sealed and incubated for at least 4 h at RT. After washing the plate once with PBST and once with PBS, 40 μL of standard or sample are added (IL-10 standard curve is prepared using a 1/2 serial dilution starting from […]; dilutions are made in dilution buffer (PBS+1% BSA)). Plates are washed twice with PBST, and once with PBS, after which 35 μL of the detection antibody is added (final concentration 0.143 μg/mL diluted in dilution buffer) and plates are incubated for at least 2 h at RT. […]

SIK3 = biological target: T1, SIK3 (Homo sapiens, UniProt Q9Y2K2); test: ADP-Glo kinase assay, SIK3; assay type: biochemical; conditions: ADP-Glo SIK kinase assay
T1 construct: purchased SignalChem S12-11G-100
T1 sequence (Q9Y2K2 whole entry): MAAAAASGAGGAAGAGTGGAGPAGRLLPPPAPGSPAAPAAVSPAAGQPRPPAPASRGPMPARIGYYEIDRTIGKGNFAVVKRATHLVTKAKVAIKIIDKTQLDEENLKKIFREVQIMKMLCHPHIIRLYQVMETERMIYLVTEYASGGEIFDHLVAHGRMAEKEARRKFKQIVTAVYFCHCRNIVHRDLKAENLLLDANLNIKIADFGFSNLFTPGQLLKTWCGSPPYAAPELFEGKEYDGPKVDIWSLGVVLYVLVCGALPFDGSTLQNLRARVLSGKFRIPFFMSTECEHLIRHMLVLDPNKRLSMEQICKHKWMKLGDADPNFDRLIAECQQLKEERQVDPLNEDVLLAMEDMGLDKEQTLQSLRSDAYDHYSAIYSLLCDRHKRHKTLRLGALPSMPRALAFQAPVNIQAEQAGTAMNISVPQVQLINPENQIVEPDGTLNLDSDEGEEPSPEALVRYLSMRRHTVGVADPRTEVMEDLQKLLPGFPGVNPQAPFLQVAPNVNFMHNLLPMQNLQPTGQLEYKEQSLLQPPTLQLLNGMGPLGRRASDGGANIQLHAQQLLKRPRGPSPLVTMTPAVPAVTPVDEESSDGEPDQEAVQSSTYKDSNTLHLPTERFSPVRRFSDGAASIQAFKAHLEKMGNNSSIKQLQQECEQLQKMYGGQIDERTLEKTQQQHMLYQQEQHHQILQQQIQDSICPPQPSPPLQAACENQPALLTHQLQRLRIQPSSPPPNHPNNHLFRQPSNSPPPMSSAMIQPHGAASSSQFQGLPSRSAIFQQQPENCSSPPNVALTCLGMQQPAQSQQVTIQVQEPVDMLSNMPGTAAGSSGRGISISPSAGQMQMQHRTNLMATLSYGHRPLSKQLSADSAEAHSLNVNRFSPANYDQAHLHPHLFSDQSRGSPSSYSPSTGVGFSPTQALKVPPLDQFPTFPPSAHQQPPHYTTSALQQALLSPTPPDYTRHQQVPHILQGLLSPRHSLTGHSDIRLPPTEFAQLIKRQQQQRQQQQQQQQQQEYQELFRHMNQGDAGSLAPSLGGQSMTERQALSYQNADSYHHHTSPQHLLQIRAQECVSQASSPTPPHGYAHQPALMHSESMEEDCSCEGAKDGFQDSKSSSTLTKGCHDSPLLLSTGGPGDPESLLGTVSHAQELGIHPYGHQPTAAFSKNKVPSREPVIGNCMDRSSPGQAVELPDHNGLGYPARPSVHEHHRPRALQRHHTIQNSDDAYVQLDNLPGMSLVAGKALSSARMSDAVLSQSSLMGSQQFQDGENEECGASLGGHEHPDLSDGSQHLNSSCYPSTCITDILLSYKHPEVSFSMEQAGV
Outline: (§9)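 Wells with 1% DMSO or 10 μM staurosporine (final) define the control window. The kinase reaction with substrate and ATP runs 120 min at RT, followed by ADP-Glo detection: ATP depletion (40 min) and ADP-derived luminescence (30 min).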

SIK2 = biological target: T2, SIK2 (Homo sapiens, UniProt Q9H0K1); test: ADP-Glo kinase assay, SIK2; assay type: biochemical; conditions: ADP-Glo SIK kinase assay
T2 construct: purchased ThermoFisher Scientific PV4792
T2 sequence (Q9H0K1 whole entry): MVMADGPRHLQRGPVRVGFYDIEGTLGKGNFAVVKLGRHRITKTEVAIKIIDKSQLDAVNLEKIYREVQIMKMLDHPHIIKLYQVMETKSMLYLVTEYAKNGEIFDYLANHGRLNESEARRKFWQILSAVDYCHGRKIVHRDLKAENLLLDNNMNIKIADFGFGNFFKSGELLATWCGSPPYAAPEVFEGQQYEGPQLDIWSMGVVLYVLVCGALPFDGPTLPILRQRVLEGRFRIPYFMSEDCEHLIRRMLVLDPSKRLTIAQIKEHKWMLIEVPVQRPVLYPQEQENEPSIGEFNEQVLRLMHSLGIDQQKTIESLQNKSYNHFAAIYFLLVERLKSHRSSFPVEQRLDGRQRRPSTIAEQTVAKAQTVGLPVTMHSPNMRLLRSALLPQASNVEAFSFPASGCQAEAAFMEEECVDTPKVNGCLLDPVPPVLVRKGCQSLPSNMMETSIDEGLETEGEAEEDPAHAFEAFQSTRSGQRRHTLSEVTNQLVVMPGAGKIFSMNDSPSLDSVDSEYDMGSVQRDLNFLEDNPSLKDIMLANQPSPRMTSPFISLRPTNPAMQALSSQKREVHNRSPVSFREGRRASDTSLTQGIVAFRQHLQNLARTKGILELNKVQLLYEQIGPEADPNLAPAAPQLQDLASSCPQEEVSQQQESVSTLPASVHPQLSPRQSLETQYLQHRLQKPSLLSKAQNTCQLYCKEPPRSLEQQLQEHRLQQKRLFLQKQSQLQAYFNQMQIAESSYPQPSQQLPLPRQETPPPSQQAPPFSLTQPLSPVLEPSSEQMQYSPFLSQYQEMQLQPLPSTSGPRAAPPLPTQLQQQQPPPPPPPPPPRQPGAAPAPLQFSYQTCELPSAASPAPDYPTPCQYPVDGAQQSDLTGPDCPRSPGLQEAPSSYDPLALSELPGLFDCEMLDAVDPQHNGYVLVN
Outline: as §9

SIK1 = biological target: T3, SIK1 (Homo sapiens, UniProt P57059); test: ADP-Glo kinase assay, SIK1; assay type: biochemical; conditions: ADP-Glo SIK kinase assay
T3 construct: purchased Carna Biosciences 02-131
T3 sequence (P57059 whole entry): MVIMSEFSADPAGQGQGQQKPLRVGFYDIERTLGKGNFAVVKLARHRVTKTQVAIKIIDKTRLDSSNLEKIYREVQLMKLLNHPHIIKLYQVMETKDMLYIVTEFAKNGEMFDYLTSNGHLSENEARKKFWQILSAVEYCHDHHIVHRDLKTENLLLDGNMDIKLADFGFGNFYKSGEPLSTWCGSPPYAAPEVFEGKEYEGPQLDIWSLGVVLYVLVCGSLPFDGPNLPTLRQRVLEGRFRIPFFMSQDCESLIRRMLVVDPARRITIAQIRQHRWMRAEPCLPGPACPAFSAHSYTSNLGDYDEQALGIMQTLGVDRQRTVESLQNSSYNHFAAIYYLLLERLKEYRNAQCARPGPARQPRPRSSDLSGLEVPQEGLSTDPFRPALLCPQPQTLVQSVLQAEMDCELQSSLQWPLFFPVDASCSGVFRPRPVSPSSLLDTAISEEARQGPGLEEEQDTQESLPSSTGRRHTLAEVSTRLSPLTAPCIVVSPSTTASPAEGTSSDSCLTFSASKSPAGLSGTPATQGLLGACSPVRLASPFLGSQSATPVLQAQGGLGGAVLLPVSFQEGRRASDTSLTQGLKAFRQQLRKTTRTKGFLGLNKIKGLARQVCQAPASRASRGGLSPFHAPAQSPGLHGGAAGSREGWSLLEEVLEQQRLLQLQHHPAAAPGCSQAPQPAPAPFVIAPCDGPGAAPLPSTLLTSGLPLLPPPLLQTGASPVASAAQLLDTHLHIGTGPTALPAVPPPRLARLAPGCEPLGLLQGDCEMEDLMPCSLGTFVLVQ
Outline: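 Enzyme–substrate mix was started with ATP and incubated 120 min at RT. ADP formed was quantified by ADP-Glo: 40 min ATP depletion, then 30 min detection reagent converting ADP to ATP for luciferase luminescence, which rises with kinase activity. Controls: 1% DMSO and 10 μM staurosporine (final).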

[2] = system: LPS-induced TNFα in monocytes; test: Monocytes assay: LPS-triggered TNFα (ELISA); assay type: cell-based, human; conditions: Homo sapiens, Monocyte, LPS 200 ng/mL, supernatant after 4 h
Procedure: as §1, §2, §3, §4, §5, §6, §7, §8
A Lumitrac 600 Greiner 384-well plate is coated with 40 μL of capture antibody (BD Pharmingen, Cat #551220) reaching a final concentration of 1 μg/mL in 1×PBS and stored overnight at 4° C.
The plate is then washed once with PBST (PBS+0.05% Tween20) and once with PBS followed by the addition of 100 μL of blocking buffer (1% Bovine Serum Albumin (BSA)−5% Sucrose) and plates are sealed and incubated for at least 4 h at RT. After washing the plate once with PBST and once with PBS, […]. Plates are washed twice with PBST, and once with PBS, after which 35 μL of the detection antibody is added (final concentration 0.25 μg/mL diluted in dilution buffer) and plates are incubated for at least 2 h at RT. […]

IC50 (SIK3) | IC50 (SIK2) | IC50 (SIK1) | EC50 ([2]; 4 h) | Structure (SMILES) | IL-10 FCmax median [1] | EC50 [2]
0.01 to 10 nM | 0.01 to 10 nM | 10 to 100 nM | 100 to 1000 nM | COc1cc(-c2cnc3cc(OCC(O)CN4CC(O)(C(F)(F)F)C4)ccn23)cc(OC(F)F)c1C(=O)NC1CC1 (stereo not drawn) [compound 375, N-cyclopropyl-2-(difluoromethoxy)-4-[7-[2-hydroxy-3-[3-hydroxy-3-(trifluoromethyl)azetidin-1-yl]propoxy]imidazo[1,2-a]pyridin-3-yl]-6-methoxy-benzamide] | +++ (>4.5) | –
0.01 to 10 nM | 0.01 to 10 nM | 10 to 100 nM | 0.1 to 100 nM | COc1cc(-c2cnc3cc(OCCCN4CC5CCC(C4)O5)ccn23)cc(OC(F)F)c1C(=O)NC1CC1 [compound 291, N-cyclopropyl-2-(difluoromethoxy)-6-methoxy-4-[7-[3-(8-oxa-3-azabicyclo[3.2.1]octan-3-yl)propoxy]imidazo[1,2-a]pyridin-3-yl]benzamide] | +++ (>4.5) | –
0.01 to 10 nM | 0.01 to 10 nM | 10 to 100 nM | 0.1 to 100 nM | CCOC(=O)C1(C)CN(CCCOc2ccn3c(-c4cc(OC)c(C(=O)NC5CC5)c(OC(F)F)c4)cnc3c2)C1 [compound 385, ethyl 1-[3-[3-[4-(cyclopropylcarbamoyl)-3-(difluoromethoxy)-5-methoxy-phenyl]imidazo[1,2-a]pyridin-7-yl]oxypropyl]-3-methyl-azetidine-3-carboxylate] | +++ (>4.5) | –
0.01 to 10 nM | 0.01 to 10 nM | 10 to 100 nM | 0.1 to 100 nM | COc1cc(-c2cnc3cc(OCCC4CCCN4C4COC4)ccn23)cc(OC(F)F)c1C(=O)NC1CC1 (stereo not drawn) [compound 299, N-cyclopropyl-2-(difluoromethoxy)-6-methoxy-4-[7-[2-[1-(oxetan-3-yl)pyrrolidin-2-yl]ethoxy]imidazo[1,2-a]pyridin-3-yl]benzamide] | +++ (>4.5) | –

Further lines, the compound ahead of its results:

Structure (SMILES) | IC50 (SIK3) | IC50 (SIK2) | IC50 (SIK1) | EC50 ([2]; 4 h) | IL-10 FCmax median [1] | EC50 [2]
COc1cc(-c2cnc3cc(OCCOCCN4CCN(C(C)C)CC4)ccn23)cc(OC(F)F)c1C(=O)NC1CC1 [compound 298, N-cyclopropyl-2-(difluoromethoxy)-4-[7-[2-[2-(4-isopropylpiperazin-1-yl)ethoxy]ethoxy]imidazo [1,2-a]pyridin-3-yl]-6-methoxy-benzamide] | 0.01 to 10 nM | 0.01 to 10 nM | 10 to 100 nM | 100 to 1000 nM | +++ (>4.5) | –
COc1cc(-c2cnc3cc(OC[C@@H]4CCCN(CCO)C4)ccn23)cc(OC(F)F)c1C(=O)NC1CC1 [Cpd 370, N-cyclopropyl-2-(difluoromethoxy)-4-[7-[[(3R)-1-(2-hydroxyethyl)-3-piperidyl]methoxy]imidazo [1,2-a]pyridin-3-yl]-6-methoxy-benzamide] | 0.01 to 10 nM | 0.01 to 10 nM | 10 to 100 nM | 100 to 1000 nM | ++ (>1.5-4.5) | –
CCOC(=O)C1(O)CCN(CC(O)COc2ccn3c(-c4cc(OC)c(C(=O)NC5CC5)c(OC(F)F)c4)cnc3c2)CC1 (stereo not drawn) [compound 383, ethyl 1-[3-[3-[4-(cyclopropylcarbamoyl)-3-(difluoromethoxy)-5-methoxy-phenyl]imidazo[1,2-a]pyridin-7-yl]oxy-2-hydroxy-propyl]-4-hydroxy-piperidine-4-carboxylate] | 0.01 to 10 nM | 0.01 to 10 nM | 10 to 100 nM | 100 to 1000 nM | ++ (>1.5-4.5) | –
COc1cc(-c2cnc3cc(OC4C[C@H]5CC[C@@H](C4)N5CCC#N)ccn23)cc(OC(F)F)c1C(=O)NC1CC1 (stereo partly drawn) [Cpd 271, 4-[7-[[(1S,5R)-8-(2-cyanoethyl)-8-azabicyclo[3.2.1]octan-3-yl]oxy]imidazo[1,2-a]pyridin-3-yl]-N-cyclopropyl-2-(difluoromethoxy)-6-methoxy-benzamide] | 0.01 to 10 nM | 10 to 100 nM | 100 to 500 nM | 100 to 1000 nM | ++ (>1.5-4.5) | –
COc1cc(-c2cnc3cc(OC4C[C@H]5CC[C@@H](C4)N5)ccn23)cc(OC(F)F)c1C(=O)NC1CC1.Cl (stereo partly drawn) [Cpd 270, 4-[7-[[(1R,5S)-8-azabicyclo[3.2.1]octan-3-yl]oxy]imidazo[1,2-a]pyridin-3-yl]-N-cyclopropyl-2-(difluoromethoxy)-6-methoxy-benzamide hydrochloride salt] | 0.01 to 10 nM | 10 to 100 nM | 100 to 500 nM | – | ++ (>1.5-4.5) | 1000 to 5000 nM
COc1cc(-c2cnc3cc(OCCC4CCCN4C(C)C)ccn23)cc(OC(F)F)c1C(=O)NC1CC1 (stereo not drawn) [compound 301, N-cyclopropyl-2-(difluoromethoxy)-4-[7-[2-(1-isopropylpyrrolidin-2-yl)ethoxy]imidazo[1,2-a]pyridin-3-yl]-6-methoxy-benzamide] | 0.01 to 10 nM | 0.01 to 10 nM | 10 to 100 nM | 0.1 to 100 nM | +++ (>4.5) | –
COc1cc(-c2cnc3cc(OCC(O)CN4CC(C(=O)OC(C)(C)C)C4)ccn23)cc(OC(F)F)c1C(=O)NC1CC1 (stereo not drawn) [compound 394, tert-butyl 1-[3-[3-[4-(cyclopropylcarbamoyl)-3-(difluoromethoxy)-5-methoxy-phenyl]imidazo[1,2-a]pyridin-7-yl]oxy-2-hydroxy-propyl]azetidine-3-carboxylate] | 0.01 to 10 nM | 0.01 to 10 nM | 10 to 100 nM | 0.1 to 100 nM | ++ (>1.5-4.5) | –
CCOC(=O)C1(c2ccccc2)CCN(CCCOc2ccn3c(-c4cc(OC)c(C(=O)NC5CC5)c(OC(F)F)c4)cnc3c2)CC1 [compound 378, ethyl 1-[3-[3-[4-(cyclopropylcarbamoyl)-3-(difluoromethoxy)-5-methoxy-phenyl]imidazo[1,2-a]pyridin-7-yl]oxypropyl]-4-phenyl-piperidine-4-carboxylate] | 0.01 to 10 nM | 0.01 to 10 nM | 10 to 100 nM | – | ++ (>1.5-4.5) | 0.1 to 100 nM
